Experimental findings from US9913862B2, “Methods of treating gram-negative microbial infections” (TRUSTEES OF BOSTON UNIVERSITY, priority 2011, dated 2018) are described below.

In data set [1] the test system is human cell lines (primary keratinocytes, primary hepatocytes and neurons).
In data set [2] the test system is E. coli. Type of data set: cell-based. Particulars: for bactericidal activity when sublethal Ag+ is added to the antibiotic: sublethal antibiotic (0.25 μg/mL gentamicin, 0.03 μg/mL ofloxacin, 1 μg/mL ampicillin) plus 15 μM AgNO3. As to the method: Antibiotics and chemicals: All experiments presented herein were performed in Luria Bertani (LB) medium (Fisher Scientific). […] Additional chemicals that were used in the Examples include: phosphate buffer saline (PBS) (Sigma), Tris/HCl buffer pH 7.5 (Sigma), ferene-S(Fisher Scientific), 3′-p-hydroxyphenyl fluorescein dye (Invitrogen), propidium iodide (Invitrogen), and thiourea (Fluka).
Media and growth conditions: The growth and survival of untreated exponential-phase E. coli strains were compared with the antibiotic-treated strains. Briefly, cultures from frozen stock were grown overnight. The overnight culture was diluted 1:250 with 25 mL of LB medium in 250 mL flasks and incubated at 37° C., 300 rpm, and 80% humidity. Cells were then grown until an OD600 nm of 0.3. For antibiotic treatments, 500 μL samples were taken from the flasks and transferred to a 24-well plate incubated at 37° C., 900 rpms, and 80% humidity. For the hydroxyl radical (OH•) quenching experiments, thiourea (150 mM) was added simultaneously with the silver salt (e.g., AgNO3). Measurements of OD600 nm were taken using a SpectraFluor Plus (Tecan). For measuring the colony forming unit (cfu) per milliliter (mL), 100 μL of culture was collected and then serially diluted in PBS (pH 7.2). A 5 μL portion of each dilution was plated in LB-agar plates and incubated overnight at 37° C. The colonies were counted and cfu/mL was calculated using the following formula: ((number of colonies)*(dilution factor))/(amount plated).
Strains: All E. Coli experiments were performed with MG1655 (ATCC 700926)-derived strains. The knockouts were constructed using P1 phage transduction and derived from the Keio single-gene knockout collection. Removal of the kanamycin resistance cassette was accomplished using the pcp20 plasmid and confirmed by PCR prior to experimentation.

The subject of data set [3] is E. Coli. Put plainly: Mouse peritonitis model, E. coli counts in peritoneal cavity. Type of data set: in vivo, mice. The following applies: after 24 hours; single agent i.p.; 30 mg vancomycin/kg or 6 mg AgNO3/kg. The protocol:
(§1) Minimum lethal dose (MLD) of E. coli for peritonitis mouse model: For all animal experiments, 6-week-old C57BL6 male mice (body weight, ˜20 g) were used. Serial dilutions of E. Coli ranging from 1×10^6-1×10^9 cfu/mouse were introduced into the peritoneal cavity of the mice in 500 μL aliquots of sterile saline supplemented with 8% mucine. […] The MLD was determined to be 5×10^6 cfu/mouse by measuring the lowest concentration of E. Coli that killed 100% of the recipient mice.
Mouse Peritonitis Model: Inbred, wildtype male C57BL/6 mice (6 weeks; ˜20 g) were used. After one week of quarantine, inoculation was performed by intraperitoneal (i.p.) injection of 500 μL of the MLD E. Coli inoculum using a 26-gauge syringe. The inoculum was delivered in suspension with 8% (w/v) mucine in sterile saline. 1 h after introduction of the inoculum, the untreated control group (t=0) was euthanized. Subsequently, antibacterial therapy was initiated by intraperitoneal injection. Ten mice per group received antibacterial treatments. At time 0 (control only), 8, 16 and 24 h, mice were euthanized. Peritoneal washes were performed by injecting 1.0 mL of sterile saline in the intraperitoneal followed by a massage of the abdomen. Subsequently, the abdomen was opened and 200 μL of peritoneal fluid (PF) was recovered from the peritoneum for analysis of E. Coli cfu/mL.

The subject of data set [4] is E. Coli. Nature of the data set: Mouse peritonitis model, survival assay. Type of data set: in vivo, mice. Particulars: after 5 days; i.p.; 30 mg vancomycin/kg, 6 mg AgNO3/kg (35 μM). As to the method: as §1
Survival Assays: Male C57BL6 6-week old mice (weighing ˜20 g) received intraperitoneal injections of the MLD of E. Coli in a volume of 500 μL with 8% mucine. After 1 h, ten mice per group received either vehicle (PBS) only or infusions of the antibacterial treatments.

Data set [5] has as its system E. coli. As to the method:
Transmission electron microscopy: Samples analyzed with transmission electron microscopy were prepared using the following procedure: 100 μL samples were taken, centrifuged and resuspended in 1×PBS twice. To fix the bacterial cells, the samples were centrifuged and resuspended in 1 mL of 2.5% glutaraldehyde solution in PBS for 30 min. The cells were then dehydrated by exposing them for 10 min to a series of ethanol concentration solutions (50, 60, 80, 90 and 100% ethanol/PBS solutions). The cells were finally embedded into Spurr resin and left to polymerize in an oven at 60° C. for 24 h. The polymerized samples were sectioned into slices of thickness of ˜60 nm using a microtome. The sliced samples were analyzed in a Jeol 1200EX-80 kV.

The next data set has as its system mice. The following applies: concentrations up to 12 mg AgNO3/kg (70 μM).
For data set [6], the system named is Fe—S clusters in E. Coli cell lysate. Particulars: 30 μM AgNO3 for 1 hr. The protocol: Iron detection Ferene S colorimetric assay: The release of protein-bound iron in an E. Coli cell lysate was measured using a Ferene-S assay. The lysate was prepared by first growing 150 mL of cells to an OD600 nm of 0.7. The cells were then lysed by sonication in 20 mM Tris/HCl pH 7.2 buffer. The samples were centrifuged and the supernatants containing the cell lysates were collected. Lysates were treated either with heat (90° C. for 20 min) or with 30 μM AgNO3 (for 1 hr). 10 mM Ferene-S was added to each sample and samples were then incubated at room temperature for 1 h. Absorbance at 593 nm was then measured.

In data set [7] the test system is E. coli. The following applies: ΔdsbA knockout; 1 h; 30 μM AgNO3.
In the next data set the test system is dps reporter strain. Put plainly: dps reporter strain (OxyR disulfide bond formation sensor). The following applies: 1 h. It counts as cell-based, E. coli. The source says: The forward primer for PCR was […] […] (SEQ ID NO: 2). […] Calibrite beads (Becton Dickinson) were used for instrument calibration. FlowJo was used to process flow cytometric data.
Another data set deals with soxS reporter strain. The following applies: 1 h, 30 μM AgNO3. As to the method:
(§2) Iron misregulation superoxide production and disulfide bond formation measurements: Iron regulation and superoxide production were measured using previously constructed genetic reporter strains. A disulfide bond formation sensor was constructed based on activation of the OxyR protein, which forms a disulfide bond in the presence of H2O2. The disulfide bond formation sensor was constructed by PCR-amplifying the native dps promoter and cloning it into the BamHI and XhoI restriction sites of the pZE21 vector [33]. The forward primer for PCR was […] (SEQ ID NO: 1), and the reverse primer was […] (SEQ ID NO: 2). The data were collected using a Becton Dickinson FACSCalibur flow cytometer with a 488-nm argon laser and a 515-545 nm emission filter (FL1) at high flow rate. Calibrite beads (Becton Dickinson) were used for instrument calibration. FlowJo was used to process flow cytometric data.

Another data set has as its system Fur reporter strain. The following applies: one hour of treatment; 15 and 30 μM AgNO3. As to the method: as §2
Data set [8] relates to E. coli. It counts as cell-based. The following applies: for ROS production when sublethal Ag+ is added to the antibiotic: sublethal antibiotic plus 15 μM AgNO3. The source says:
FlowJo was used to process flow cytometric data.

Where two headings read alike, the source gives them in different places.

On to `O=[N+]([O-])[O-].[Ag+]` [Ag^+, silver nitrate], for which the “toxicity in human cell lines” value in data set [1] is “no significant toxicity”. Further, the “bactericidal activity against exponentially growing E. coli” value with E. coli [2] (30 μM, wildtype) is on record as “significant bactericidal activity”. In the data set on E. coli [2] (DsbC knockout, 30 μM AgNO3), the “phenotype of DsbC knockout under treatment” value is on record as “phenotype similar to that exhibited by ΔdsbA”. Also, the “reduction or inhibition of growth compared to untreated microbes” value with E. coli [2] (silver ions at about 30 μM, FIG. 1A) is listed as “at least 30%”. For the same compound, the “sensitivity of ΔarcA strain compared to wildtype” value with E. coli [2] (ΔarcA knockout, 30 μM AgNO3) is reported as “lower sensitivity”. Moreover, the “sensitivity of ΔcpxA and ΔcpxR strains versus wildtype” value in the data set with E. coli [2] (ΔcpxA and ΔcpxR knockouts, 30 μM AgNO3) was “less sensitive”. In addition, the “sensitivity of cytochrome bd knockout (ΔcydB) versus wildtype” value in the data set with E. coli [2] (30 μM AgNO3) is recorded as “less sensitive”; in the data set on E. coli [2] (30 μM AgNO3, listed as silver nitrate) it was “considerably less sensitivity”. Besides, the “sensitivity of cytochrome bo knockout (ΔcyoA) versus wildtype” value with E. coli [2] (ΔcyoA knockout) is given as “greater sensitivity”. Besides, the “sensitivity of ΔdsbA strain versus treated wildtype” value in the data set with E. coli [2] (ΔdsbA knockout, 30 μM AgNO3) was “more sensitive”. In addition, in the data set with E. coli [2] (ΔicdA, ΔsucB, Δmdh, ΔacnB, 30 μM AgNO3), the “sensitivity of TCA cycle gene knockout strains versus wildtype” value is “less sensitive”. Moreover, in the data set on E. coli [2] (ΔiscS knockout, 30 μM AgNO3), the “phenotype of ΔiscS strain under treatment” value was “bacteriostatic phenotype”. Moreover, the “susceptibility of ΔsecG strain compared to wildtype” value in the data set on E. coli [2] (ΔsecG knockout, 30 μM AgNO3) is “less susceptible”. For the same compound, in the data set on E. Coli [3], the “effect on peritoneal E. Coli cell counts” value is reported as “no effect”. Also, the mice survived in the data set on E. Coli [4] turned out to be 50%. In the data set with E. coli [5] (10 μM and 20 μM AgNO3), the “physical changes of bacterial cells (TEM) at sublethal concentrations” value was “moderate morphological changes and protein aggregate formation”. In addition, in the data set with E. coli [5] (bactericidal concentrations (30 μM AgNO3)), the “physical changes of bacterial cells (TEM)” value is “protein aggregation and drastic morphological changes in the cell envelope”. In addition, the toxicity in mice result in the data set on mice is recorded as “no effect”. The “Fe+2 levels in treated lysate relative to untreated lysate” value in data set [6] was “higher Fe^+2 levels”. In addition, the “permeability (PI) of ΔdsbA strain versus treated wildtype” value in the data set with E. coli [7] is recorded as “more permeable”. Moreover, the “dps reporter GFP fluorescence on addition to H2O2 treatment” value with dps reporter strain (30 μM AgNO3 added to 0.5 mM H2O2) is listed as “reduced the fluorescence back to untreated levels”. In the data set on soxS reporter strain, the “response of soxS reporter strain (superoxide production)” value is recorded as “induce superoxide production”. Also, the “superoxide levels in ΔcydB in response to treatment” value in the data set with soxS reporter strain (soxS reporter in ΔcydB) is “lower levels of superoxide”. Besides, the “Fur reporter GFP fluorescence relative to untreated cells” value with Fur reporter strain is listed as “significantly increased fluorescence”. In addition, in the data set with E. coli [8] (treated for one hour, 30 μM AgNO3, wildtype), the “HPF fluorescence (OH• production) compared to untreated cells” value is reported as “detectable increases in fluorescence”. Moreover, the “hydroxyl radical production in ΔarcA strain compared to wildtype” value in the data set with E. coli [8] (ΔarcA knockout, 1 h, 30 μM AgNO3) is “lower hydroxyl radical production”. Also, the “hydroxyl radical production in ΔcpxA and ΔcpxR strains” value in the data set with E. coli [8] (ΔcpxA and ΔcpxR knockouts, 1 h, 30 μM AgNO3) is “lower levels of hydroxyl radical production”. Moreover, the “OH• production in ΔiscS compared to wildtype cells” value in the data set with E. coli [8] (ΔiscS knockout, 1 h, 30 μM AgNO3) is recorded as “significantly lower OH• production”.

Consider `OO` [H2O2, reference compound], for which the “dps reporter GFP fluorescence relative to untreated cells” value in the data set with dps reporter strain (0.5 mM H2O2 alone) is on record as “significantly increased fluorescence”.

As for `CC1(C)S[C@@H]2[C@H](NC(=O)[C@H](N)c3ccccc3)C(=O)N2[C@H]1C(=O)O` [ampicillin, reference compound], the “bactericidal activity when sublethal Ag+ is added to the antibiotic” value in the data set with E. coli [2] is reported as “significantly enhanced bactericidal activity”. In addition, in the data set on E. coli [8] (1 h), the “ROS (OH•) production from sublethal antibiotic alone” value was “no detectable increases in ROS production” and the “ROS production when sublethal Ag+ is added to the antibiotic” value was “dramatic increases in ROS”.

For `CN[C@H](CC(C)C)C(=O)N[C@H]1C(=O)N[C@@H](CC(N)=O)C(=O)N[C@H]2C(=O)N[C@H]3C(=O)N[C@H](C(=O)N[C@H](C(=O)O)c4cc(O)cc(O)c4-c4cc3ccc4O)[C@H](O)c3ccc(c(Cl)c3)Oc3cc2cc(c3O[C@@H]2O[C@H](CO)[C@@H](O)[C@H](O)[C@H]2O[C@H]2C[C@](C)(N)[C@H](O)[C@H](C)O2)Oc2ccc(cc2Cl)[C@H]1O` [vancomycin, reference compound], the “cell death with combination relative to Ag+ or vancomycin alone” value in the data set with E. coli [2] (30 μg/mL vancomycin combined with 15, 20 or 30 μM AgNO3) is reported as “significantly higher levels of cell death”. In addition, in the data set on E. coli [2] (vancomycin combined with silver nitrate, silver ions about 15 μM, FIG. 8D), the “growth of Gram-negative microbes (E. coli) under combination” value is “reduces the growth”. The “effect on peritoneal E. Coli cell counts” value with E. Coli [3] was “no effect”. Also, the mice survived in the data set with E. Coli [4] was 10%.

gentamicin [reference compound]: the “bactericidal activity when sublethal Ag+ is added to the antibiotic” value in the data set with E. coli [2] is “significantly enhanced bactericidal activity”. Moreover, in the data set on E. coli [8] (1 h), the “ROS (OH•) production from sublethal antibiotic alone” value is listed as “no detectable increases in ROS production” and the “ROS production when sublethal Ag+ is added to the antibiotic” value is recorded as “dramatic increases in ROS”.
